Measurements: patent US12539292B2, “BRM targeting compounds and associated methods of use” (Arvinas Operations, Inc., priority 2018, dated 2026)

Target: T1, BRM (Homo sapiens, UniProt P51531)
T1 construct: In-Cell Western Screen of BRM Degradation in SW1573 Cells; endogenous in cells; host or cells: SW1573
Assay: In-cell Western screen of BRM degradation in SW1573 cells (Dmax and DC50)
Type: cell-based
Conditions: for DC50: BRM degradation, read-out: BRM DC50; for Dmax: SW1573, % degraded, when tested at the top concentration of between 0.3 and 10 μM, read-out: BRM Dmax (%)
Method in brief: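 Near-infrared imaging on a LI-COR Odyssey (800 and 680 nm channels) quantifies BRM remaining in fixed SW1573 cells. Cells are dosed for 18-20 h at 0.1% final DMSO, and degradation is expressed as Dmax and DC50.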

T1 sequence (P51531 whole entry): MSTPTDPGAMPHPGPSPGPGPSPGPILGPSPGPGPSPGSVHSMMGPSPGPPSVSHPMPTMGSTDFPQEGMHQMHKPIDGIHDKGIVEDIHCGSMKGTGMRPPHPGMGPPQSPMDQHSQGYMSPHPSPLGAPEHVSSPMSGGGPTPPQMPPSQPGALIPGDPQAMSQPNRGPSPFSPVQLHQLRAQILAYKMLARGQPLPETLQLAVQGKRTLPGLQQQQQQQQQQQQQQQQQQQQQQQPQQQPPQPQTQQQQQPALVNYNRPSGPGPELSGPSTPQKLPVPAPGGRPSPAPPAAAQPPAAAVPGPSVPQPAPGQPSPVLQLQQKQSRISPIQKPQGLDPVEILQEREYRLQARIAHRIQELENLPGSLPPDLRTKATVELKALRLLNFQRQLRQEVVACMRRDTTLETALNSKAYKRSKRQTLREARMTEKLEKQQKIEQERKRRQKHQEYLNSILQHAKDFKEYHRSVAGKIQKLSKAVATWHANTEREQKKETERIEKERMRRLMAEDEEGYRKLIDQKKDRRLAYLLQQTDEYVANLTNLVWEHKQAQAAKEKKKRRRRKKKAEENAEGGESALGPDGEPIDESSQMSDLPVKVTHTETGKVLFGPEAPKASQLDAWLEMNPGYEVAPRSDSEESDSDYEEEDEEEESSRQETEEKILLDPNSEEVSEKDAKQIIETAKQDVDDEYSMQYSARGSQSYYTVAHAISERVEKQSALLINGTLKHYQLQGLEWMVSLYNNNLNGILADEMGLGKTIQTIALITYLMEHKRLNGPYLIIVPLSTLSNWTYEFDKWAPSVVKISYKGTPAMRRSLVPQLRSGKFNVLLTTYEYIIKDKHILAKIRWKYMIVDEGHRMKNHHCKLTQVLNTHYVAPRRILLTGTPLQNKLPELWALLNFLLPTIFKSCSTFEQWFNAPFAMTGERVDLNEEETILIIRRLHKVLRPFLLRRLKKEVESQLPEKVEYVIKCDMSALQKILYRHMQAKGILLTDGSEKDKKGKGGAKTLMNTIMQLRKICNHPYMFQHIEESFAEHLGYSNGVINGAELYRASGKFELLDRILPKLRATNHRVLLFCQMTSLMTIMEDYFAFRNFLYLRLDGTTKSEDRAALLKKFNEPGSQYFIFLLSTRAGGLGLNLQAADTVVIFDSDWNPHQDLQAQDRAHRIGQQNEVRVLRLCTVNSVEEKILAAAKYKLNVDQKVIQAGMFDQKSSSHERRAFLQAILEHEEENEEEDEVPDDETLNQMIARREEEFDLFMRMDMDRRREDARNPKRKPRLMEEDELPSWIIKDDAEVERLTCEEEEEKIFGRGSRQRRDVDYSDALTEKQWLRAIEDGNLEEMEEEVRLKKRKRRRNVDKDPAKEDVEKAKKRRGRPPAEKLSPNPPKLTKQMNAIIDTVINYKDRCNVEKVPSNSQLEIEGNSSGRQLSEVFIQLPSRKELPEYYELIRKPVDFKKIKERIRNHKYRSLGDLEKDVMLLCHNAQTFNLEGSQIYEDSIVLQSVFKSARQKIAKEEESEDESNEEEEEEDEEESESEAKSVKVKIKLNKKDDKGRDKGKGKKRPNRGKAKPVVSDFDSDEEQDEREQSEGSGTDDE

| Structure (SMILES) | DC50 | Dmax |
| --- | --- | --- |
| Cc1ncsc1-c1ccc([C@H](C)NC(=O)[C@@H]2C[C@@H](O)CN2C(=O)[C@@H](c2cc(N3CCC(CN4CCC(O[C@H]5C[C@H](C#C[C@@H](C)n6cc(-c7cc(-c8ccccc8O)nnc7N)cn6)C5)CC4)CC3)no2)C(C)C)cc1 [compound 496, (2S,4R)-1-((R)-2-(3-(4-((4-((1R,3r)-3-((R)-3-(4-(3-amino-6-(2-hydroxyphenyl)pyridazin-4-yl)-1H-pyrazol-1-yl)but-1-yn-1-yl)cyclobutoxy)piperidin-1-yl)methyl)piperidin-1-yl)isoxazol-5-yl)-3-methylbutanoyl)-4-hydroxy-N-((S)-1-(4-(4-methylthiazol-5-yl)phenyl)ethyl)pyrrolidine-2-carboxamide] | < 2.5 nM | > 75% |
| Cc1ncsc1-c1ccc([C@H](C)NC(=O)[C@@H]2C[C@@H](O)CN2C(=O)[C@@H](c2cc(N3CCC(CN4CCC(O[C@H]5C[C@H](C#C[C@H](C)n6cc(-c7cc(-c8ccccc8O)nnc7N)cn6)C5)CC4)CC3)no2)C(C)C)cc1 [compound 497, (2S,4R)-1-((R)-2-(3-(4-((4-((1S,3r)-3-((S)-3-(4-(3-amino-6-(2-hydroxyphenyl)pyridazin-4-yl)-1H-pyrazol-1-yl)but-1-yn-1-yl)cyclobutoxy)piperidin-1-yl)methyl)piperidin-1-yl)isoxazol-5-yl)-3-methylbutanoyl)-4-hydroxy-N-((S)-1-(4-(4-methylthiazol-5-yl)phenyl)ethyl)pyrrolidine-2-carboxamide] | < 2.5 nM | > 75% |
| Cc1ncsc1-c1ccc([C@H](C)NC(=O)[C@@H]2C[C@@H](O)CN2C(=O)[C@H](c2cc(N3CCN(C[C@H]4C[C@H](Oc5cc(N6C7CCC6CN(c6cc(-c8ccccc8O)nnc6N)C7)ccn5)C4)CC3)no2)C(C)C)cc1 [compound 498, (2S,4R)-1-((2S)-2-(3-(4-(((1r,3S)-3-((4-(3-(3-amino-6-(2-hydroxyphenyl)pyridazin-4-yl)-3,8-diazabicyclo[3.2.1]octan-8-yl)pyridin-2-yl)oxy)cyclobutyl)methyl)piperazin-1-yl)isoxazol-5-yl)-3-methylbutanoyl)-4-hydroxy-N-((S)-1-(4-(4-methylthiazol-5-yl)phenyl)ethyl)pyrrolidine-2-carboxamide] | > 30 nM | – |
| Cc1ncsc1-c1ccc([C@H](C)NC(=O)[C@@H]2C[C@@H](O)CN2C(=O)[C@@H](c2cc(N3CCN(C[C@H]4C[C@H](Oc5cc(N6C7CCC6CN(c6cc(-c8ccccc8O)nnc6N)C7)ccn5)C4)CC3)no2)C(C)C)cc1 [compound 499, (2S,4R)-1-((2R)-2-(3-(4-(((1r,3R)-3-((4-(3-(3-amino-6-(2-hydroxyphenyl)pyridazin-4-yl)-3,8-diazabicyclo[3.2.1]octan-8-yl)pyridin-2-yl)oxy)cyclobutyl)methyl)piperazin-1-yl)isoxazol-5-yl)-3-methylbutanoyl)-4-hydroxy-N-((S)-1-(4-(4-methylthiazol-5-yl)phenyl)ethyl)pyrrolidine-2-carboxamide] | < 2.5 nM | > 75% |
| Cc1ncsc1-c1ncc([C@H](C)NC(=O)[C@@H]2C[C@@H](O)CN2C(=O)C(c2cc(OCCN3CCC(O[C@H]4C[C@H](Oc5cc(N6C7CCC6CN(c6cc(-c8ccccc8O)nnc6N)C7)ccn5)C4)CC3)no2)C(C)C)cc1F (stereo partly drawn) [compound 500, (2S,4R)-1-(2-(3-(2-(4-((1r,3r)-3-((4-(3-(3-amino-6-(2-hydroxyphenyl)pyridazin-4-yl)-3,8-diazabicyclo[3.2.1]octan-8-yl)pyridin-2-yl)oxy)cyclobutoxy)piperidin-1-yl)ethoxy)isoxazol-5-yl)-3-methylbutanoyl)-N-((S)-1-(5-fluoro-6-(4-methylthiazol-5-yl)pyridin-3-yl)ethyl)-4-hydroxypyrrolidine-2-carboxamide] | > 30 nM | – |
| Cc1ncsc1-c1ncc([C@@H](C)NC(=O)[C@@H]2C[C@@H](O)CN2C(=O)C(c2cc(OCCN3CCC(O[C@H]4C[C@H](Oc5cc(N6C7CCC6CN(c6cc(-c8ccccc8O)nnc6N)C7)ccn5)C4)CC3)no2)C(C)C)cc1F (stereo partly drawn) [compound 501, (2S,4R)-1-(2-(3-(2-(4-((1r,3r)-3-((4-(3-(3-amino-6-(2-hydroxyphenyl)pyridazin-4-yl)-3,8-diazabicyclo[3.2.1]octan-8-yl)pyridin-2-yl)oxy)cyclobutoxy)piperidin-1-yl)ethoxy)isoxazol-5-yl)-3-methylbutanoyl)-N-((R)-1-(5-fluoro-6-(4-methylthiazol-5-yl)pyridin-3-yl)ethyl)-4-hydroxypyrrolidine-2-carboxamide] | < 2.5 nM | > 75% |
| Cc1ncsc1-c1ccc([C@H](C)NC(=O)[C@@H]2C[C@@H](O)CN2C(=O)[C@@H](c2cc(OCCN3CCC(O[C@H]4C[C@H](Oc5cc(N6C7CCC6CN(c6cc(-c8cc(F)ccc8O)nnc6N)C7)ccn5)C4)CC3)no2)C(C)C)cc1 [compound 502, (2S,4R)-1-((2R)-2-(3-(2-(4-((1r,3R)-3-((4-(3-(3-amino-6-(5-fluoro-2-hydroxyphenyl)pyridazin-4-yl)-3,8-diazabicyclo[3.2.1]octan-8-yl)pyridin-2-yl)oxy)cyclobutoxy)piperidin-1-yl)ethoxy)isoxazol-5-yl)-3-methylbutanoyl)-4-hydroxy-N-((S)-1-(4-(4-methylthiazol-5-yl)phenyl)ethyl)pyrrolidine-2-carboxamide] | < 2.5 nM | > 75% |
| Cc1ncsc1-c1ccc([C@H](C)NC(=O)[C@@H]2C[C@@H](O)CN2C(=O)[C@H](c2cc(OCCN3CCC(O[C@H]4C[C@H](Oc5cc(N6C7CCC6CN(c6cc(-c8ccccc8O)nnc6N)C7)ccn5)C4)CC3)no2)C(C)C)nn1 [compound 503, (2S,4R)-1-((2S)-2-(3-(2-(4-((1r,3S)-3-((4-(3-(3-amino-6-(2-hydroxyphenyl)pyridazin-4-yl)-3,8-diazabicyclo[3.2.1]octan-8-yl)pyridin-2-yl)oxy)cyclobutoxy)piperidin-1-yl)ethoxy)isoxazol-5-yl)-3-methylbutanoyl)-4-hydroxy-N-((S)-1-(6-(4-methylthiazol-5-yl)pyridazin-3-yl)ethyl)pyrrolidine-2-carboxamide] | > 30 nM | – |
| Cc1ncsc1-c1ccc([C@H](C)NC(=O)[C@@H]2C[C@@H](O)CN2C(=O)[C@@H](c2cc(OCCN3CCC(O[C@H]4C[C@H](Oc5cc(N6C7CCC6CN(c6cc(-c8ccccc8O)nnc6N)C7)ccn5)C4)CC3)no2)C(C)C)nn1 [compound 504, (2S,4R)-1-((2R)-2-(3-(2-(4-((1r,3R)-3-((4-(3-(3-amino-6-(2-hydroxyphenyl)pyridazin-4-yl)-3,8-diazabicyclo[3.2.1]octan-8-yl)pyridin-2-yl)oxy)cyclobutoxy)piperidin-1-yl)ethoxy)isoxazol-5-yl)-3-methylbutanoyl)-4-hydroxy-N-((S)-1-(6-(4-methylthiazol-5-yl)pyridazin-3-yl)ethyl)pyrrolidine-2-carboxamide] | > 30 nM | – |
| Cc1ncsc1-c1ccc([C@H](C)NC(=O)[C@@H]2C[C@@H](O)CN2C(=O)[C@@H](c2cc(OCCN(C(C)C)[C@H]3CC[C@H](O[C@H]4C[C@H](Oc5cc(N6C7CCC6CN(c6cc(-c8ccccc8O)nnc6N)C7)ccn5)C4)CC3)no2)C(C)C)cn1 [compound 505, (2S,4R)-1-((2R)-2-(3-(2-(((1R,4R)-4-((1r,3R)-3-((4-(3-(3-amino-6-(2-hydroxyphenyl)pyridazin-4-yl)-3,8-diazabicyclo[3.2.1]octan-8-yl)pyridin-2-yl)oxy)cyclobutoxy)cyclohexyl)(isopropyl)amin 0)ethoxy)isoxazol-5-yl)-3-methylbutanoyl)-4-hydroxy-N-((S)-1-(6-(4-methylthiazol-5-yl)pyridin-3-yl)ethyl)pyrrolidine-2-carboxamide] | 2.5 to 10 nM | > 75% |
| Cc1ncsc1-c1ccc([C@H](C)NC(=O)[C@@H]2C[C@@H](O)CN2C(=O)[C@@H](c2cc(OCCN3CCC(O[C@H]4C[C@H](Oc5cc(N6C7CCC6CN(c6cc(-c8ccccc8OP(=O)(O)O)nnc6N)C7)ccn5)C4)CC3)no2)C(C)C)cc1 [compound 506, 2-(6-amino-5-(8-(2-((1R,3r)-3-((1-(2-((5-((R)-1-((2S,4R)-4-hydroxy-2-(((S)-1-(4-(4-methylthiazol-5-yl)phenyl)ethyl)carbamoyl)pyrrolidin-1-yl)-3-methyl-1-oxobutan-2-yl)isoxazol-3-yl)oxy)ethyl)piperidin-4-yl)oxy)cyclobutoxy)pyridin-4-yl)-3,8-diazabicyclo[3.2.1]octan-3-yl)pyridazin-3-yl)phenyl dihydrogen phosphate] | < 2.5 nM | > 75% |
| Cc1ncsc1-c1ccc([C@H](C)NC(=O)[C@@H]2C[C@@H](O)CN2C(=O)[C@@H](c2cc(OCCN3CCN(CCOc4cc(N5C6CCC5CN(c5cc(-c7ccccc7O)nnc5N)C6)ccn4)C[C@@H]3C)no2)C(C)C)cn1 [compound 509, (2S,4R)-1-((2R)-2-(3-(2-((2S)-4-(2-((4-(3-(3-amino-6-(2-hydroxyphenyl)pyridazin-4-yl)-3,8-diazabicyclo[3.2.1]octan-8-yl)pyridin-2-yl)oxy)ethyl)-2-methylpiperazin-1-yl)ethoxy)isoxazol-5-yl)-3-methylbutanoyl)-4-hydroxy-N-((S)-1-(6-(4-methylthiazol-5-yl)pyridin-3-yl)ethyl)pyrrolidine-2-carboxamide] | < 2.5 nM | > 75% |
| Cc1ncsc1-c1ccc([C@H](C)NC(=O)[C@@H]2C[C@@H](O)CN2C(=O)[C@H](c2cc(OCCC3CCN(CCOc4cc(N5C6CCC5CN(c5cc(-c7ccccc7O)nnc5N)C6)ccn4)CC3)no2)C(C)C)cc1 [compound 510, (2S,4R)-1-((2S)-2-(3-(2-(1-(2-((4-(3-(3-amino-6-(2-hydroxyphenyl)pyridazin-4-yl)-3,8-diazabicyclo[3.2.1]octan-8-yl)pyridin-2-yl)oxy)ethyl)piperidin-4-yl)ethoxy)isoxazol-5-yl)-3-methylbutanoyl)-4-hydroxy-N-((S)-1-(4-(4-methylthiazol-5-yl)phenyl)ethyl)pyrrolidine-2-carboxamide] | < 2.5 nM | > 75% |
